The text below walks through data of ChEMBL document CHEMBL4342443, “Phloroglucinol Benzophenones and Xanthones from the Leaves of Garcinia cowa and Their Nitric Oxide Production and α-Glucosidase Inhibitory Activities” (J Nat Prod, 2020).

Active and inactive are the calls of the source. No cut-off for these calls is given here.

For assay [1], the target named is T1, Alpha glucosidase (Homo sapiens, UniProt O43451+P10253+P14410+Q2M2H8). Kind of assay: Inhibition of alpha-glucosidase (unknown origin) using p-nitrophenyl alpha-D-glucoside as substrate preincubated for 0.5 hrs followed substrate addition and measured after 1 hr by colorimetric method. Format: protein assay.
Assay [2] has as its system RAW264.7. In words: Inhibition of NO production in LPS-stimulated mouse RAW264.7 cells incubated for 24 hrs by Griess reagent-based assay. The conditions noted are these: RAW264.7, 24 h. Format: functional, cell-based. (Griess reagent forms a coloured azo dye with nitrite.)
Assay [3] concerns the target T1, Alpha glucosidase. Kind of assay: Inhibition of alpha-glucosidase (unknown origin) at > 100 uM using p-nitrophenyl alpha-D-glucoside as substrate preincubated for 0.5 hrs followed substrate addition and measured after 1 hr by colorimetric method. Format: protein assay.
The subject of assay [4] is RAW264.7. Kind of assay: Inhibition of NO production in LPS-stimulated mouse RAW264.7 cells at > 100 uM incubated for 24 hrs by Griess reagent-based assay. Format: functional, cell-based.

A word on the IC50: it is the concentration needed to halve the response being measured. For `COc1c(O)cc2oc3cc4c(c(O)c3c(=O)c2c1CC=C(C)C)C=CC(C)(C)O4` [MANGOSTANIN], the results for the concentration for half-maximal inhibition (IC50) on Alpha glucosidase [1] and in the assay on RAW264.7 [2] were 11.4 µM and 18.6 µM, respectively.
Regarding `CC(C)=CCC/C(C)=C/CC/C(C)=C/CCC(C)(O)CCc1c(O)c(O)cc2oc3cc(O)cc(O)c3c(=O)c12` (racemic), the half-inhibitory concentration (IC50) on Alpha glucosidase [1] worked out at 15.4 µM; in the assay with RAW264.7 [2] it was 5.8 µM.
In the case of `COc1c(O)cc2oc3cc(O)c(CCC(C)(C)O)c(O)c3c(=O)c2c1CC=C(C)C`, the midpoint of inhibition in the assay on RAW264.7 [2], the IC50, lay at 5.4 µM. In addition, on Alpha glucosidase [3], the inhibition result was “inactive”.
Take `COc1c(O)cc2oc3cc(O)c(CC=C(C)C)c(O)c3c(=O)c2c1C/C=C(\C)CCC=C(C)C` [COWANIN]: the concentration for half-maximal inhibition (IC50) at Alpha glucosidase [1] came out at 37.4 µM. For the same compound, the inhibition result with RAW264.7 [4] was “inactive”.
On to `CC(C)=CCC/C(C)=C/CC/C(C)=C/Cc1c(O)c(O)cc2oc3cc(O)cc(O)c3c(=O)c12`, for which, on Alpha glucosidase [1], the concentration for half-maximal inhibition (IC50) is 76.2 µM. In the assay with RAW264.7 [4], the inhibition result was “inactive”.
Regarding `CC(C)=CCC/C(C)=C/Cc1c(O)cc2oc3c(O)cccc3c(=O)c2c1O`, the inhibition entry on Alpha glucosidase [3] and in the assay on RAW264.7 [4] was “inactive” in each case.
Take `COc1c(O)cc2oc3cc(O)c(C/C=C(\C)CO)c(O)c3c(=O)c2c1C/C=C(\C)CCC=C(C)C`: the IC50 against Alpha glucosidase [1] came out at 28.7 µM; in the assay on RAW264.7 [2] it was 13.4 µM.
Regarding `CC(C)=CC[C@@H]1C[C@@]23CCC(C)(C)OC2=C(C(=O)c2ccccc2)C(=O)[C@H](C3=O)[C@@]1(C)CCCC(C)(C)O`, the half-inhibitory concentration (IC50) in the assay on RAW264.7 [2] was 11 µM. The inhibition result on Alpha glucosidase [3] was “inactive”.
In the case of `N=C(N)NN` [PIMAGEDINE], the concentration for half-maximal inhibition (IC50) in the assay on RAW264.7 [2] worked out at 19.9 µM.
Consider `CC(C)(O)CCC[C@@]1(C)[C@H](CCC(C)(C)O)C[C@@]23CCC(C)(C)OC2=C(C(=O)c2ccccc2)C(=O)[C@@H]1C3=O`, for which the inhibition entry on Alpha glucosidase [3] and with RAW264.7 [4] was “inactive” in each case.
Turning to `CC1(C)CCc2c(cc3oc4c(O)c(O)ccc4c(=O)c3c2O)O1`, the inhibition result on Alpha glucosidase [3] and in the assay on RAW264.7 [4] was “inactive” each time.
Compound `COc1cc2oc3cc(O)c(OC)c(CC=C(C)C)c3c(=O)c2c(O)c1CC=C(C)C` returned an IC50 at Alpha glucosidase [1] of 22.6 µM. For the same compound, the inhibition result in the assay with RAW264.7 [4] is “inactive”.
On to `CC(C)=CCC/C(C)=C/CCC(C)(O)CCc1c(O)c(O)cc2oc3cc(O)cc(O)c3c(=O)c12` (racemic), for which the half-maximal inhibitory concentration (IC50) on Alpha glucosidase [1] came to 25.4 µM; in the assay on RAW264.7 [2], 7.7 µM.
